Where two headings read alike, the source gives them in different places.
Key:
advanced HCC = conditions: advanced unresectable HCC, cited from earlier work
HCC cells (Huh7) = test: Rescue and PA addition experiments: migration, invasion, limiting dilution spheroid formation, western blot; type: cell-based, human; conditions: exogenous PA added to HCC cells
Protocol: Cells at limited dilutions were cultured in 100 μL serum-free DM E M/F12 medium (Invitrogen) supplemented with 20 ng/mL human recombinant epidermal growth factor (Sigma-Aldrich), 10 ng/mL human recombinant basic fibroblast growth factor (Sigma-Aldrich), […] (Sigma-Aldrich), B27 (1:50; Invitrogen), 500 U/mL penicillin, […] (Invitrogen), and 0.25% methylcellulose (Sigma-Aldrich). Cells were cultured in suspension in polyHEMA-coated 96-well plates. The cells were replenished with 30 μL of the supplemented medium every second day. The wells were monitored for sphere formation for 7-10 days. The tumor-initiating cell frequency was calculated using extreme limiting dilution analysis.
Cells were lysed in RIPA buffer (Cell Signalling Technology) containing a complete protease inhibitor cocktail (Roche) and PMSF (Sigma-Aldrich). Protein lysates were quantified and resolved on an SDS-PAGE gel, transferred onto a PV DF membrane (Pall), immunoblotted with a primary antibody, and incubated with a secondary antibody. The antibody signal was detected using the A mersham ECL Select Western Blotting Detection Reagent (GE Healthcare). […]

AGPAT4 = molecular target: T1, AGPAT4 (Homo sapiens, UniProt Q9NRZ5, C228A); test: Competitive gel-based ABPP in live cells with CL26-alkyne probe; type: cell-based; conditions: Huh7 cells, AGPAT4 C228A mutation
T1 construct: The open reading frame (ORF) encoding the mRNA of AGPAT4 was cloned into the pDONR-221 donor vector; expressed in transfected cells; host or cells: Huh7
T1 sequence (Q9NRZ5 1-378 C228A): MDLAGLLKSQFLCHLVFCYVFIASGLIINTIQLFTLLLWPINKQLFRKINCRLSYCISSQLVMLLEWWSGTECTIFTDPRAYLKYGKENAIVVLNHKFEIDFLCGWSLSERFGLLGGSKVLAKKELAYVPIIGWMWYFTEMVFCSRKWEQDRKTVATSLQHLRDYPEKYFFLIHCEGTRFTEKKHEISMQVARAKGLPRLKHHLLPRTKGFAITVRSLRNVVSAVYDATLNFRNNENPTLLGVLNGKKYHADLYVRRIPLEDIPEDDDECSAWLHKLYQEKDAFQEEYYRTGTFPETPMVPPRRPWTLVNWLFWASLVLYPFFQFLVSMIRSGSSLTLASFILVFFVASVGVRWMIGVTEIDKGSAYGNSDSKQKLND
Protocol: An in-gel fluorescence assay was performed to investigate the protein targets of CL26. Huh7 cells overexpressing AGPAT4 or cysteine mutants were pre-treated with CL26 at the indicated concentrations for 2 h, followed by CL26-alkyne (1 μM) treatment for another 2 h. Cells were harvested in RIPA buffer supplemented with protease and phosphatase inhibitors (Thermo Fisher Scientific #A32961). The proteins were precipitated by incubation with 6× volume of pre-chilled acetone at −20° C. overnight. Proteins were pelleted by centrifugation at 5000 g for 10 min and resuspended in PBS. The protein content was measured using the BCA assay and normalized to 2 mg/mL. Cell lysates (50 μL) were labelled with azide-fluor 545 by click reaction (final reaction mixture: azide-fluor 545 (25 μM), copper(II) sulfate (1 mM), TBTA (100 μM), and freshly prepared TCEP (1 mM)) at room temperature with constant agitation. After incubation for 1 h, the reaction was quenched with the sampling buffer and boiled at 90° C. for 5 min. Samples were subjected to SDS-PAGE, in-gel fluorescence was captured using ChemiDoc MP (Bio-Rad), and Coomassie Blue staining was performed. Similarly, immunoblotting was used to investigate the protein targets of CL26. Huh7 cells stably transfected with FLAG-AGPAT4 were pre-treated with either the solvent control or CL26 at the indicated concentrations for 2 h, followed by CL26-alkyne (10 μM) treatment for another 2 h. Cells were harvested, and lysates were prepared as described above unless specified. Anti-FLAG M 2 affinity beads were added in FLAG-tag pull-down experiments. After 4 h of incubation at 4° C., the beads were washed with TBS-T and resuspended in TBS-T. Sampling buffer was added and the samples were boiled for protein elution. The samples were subjected to SDS-PAG E and imaged for fluorescence signals before western blot analysis. In the probe pull-down experiment, 1 mL of lysate was labelled with desthiobiotin (DTB)-azide by a click reaction (final reaction mixture: copper(II) sulfate (1 mM), TBTA (100 μM), DTB-PEG-azide (100 μM), and freshly prepared TCEP (1 mM)). […]

[1] = test system: AGPAT LPAAT family members (AGPAT1, 2, 3, 4 and 5); test: Isoform specificity: streptavidin pulldown and immunoblotting of CL26-alkyne-bound proteins; type: cell-based, human; conditions: Huh7 cells, DTB-PEG-azide, streptavidin pulldown
Protocol: An in-gel fluorescence assay was performed to investigate the protein targets of CL26. Huh7 cells overexpressing AGPAT4 or cysteine mutants were pre-treated with CL26 at the indicated concentrations for 2 h, followed by CL26-alkyne (1 μM) treatment for another 2 h. Cells were harvested in RIPA buffer supplemented with protease and phosphatase inhibitors (Thermo Fisher Scientific #A32961). The proteins were precipitated by incubation with 6× volume of pre-chilled acetone at −20° C. overnight. Proteins were pelleted by centrifugation at 5000 g for 10 min and resuspended in PBS. The protein content was measured using the BCA assay and normalized to 2 mg/mL. Cell lysates (50 μL) were labelled with azide-fluor 545 by click reaction (final reaction mixture: azide-fluor 545 (25 μM), copper(II) sulfate (1 mM), TBTA (100 μM), and freshly prepared TCEP (1 mM)) at room temperature with constant agitation. After incubation for 1 h, the reaction was quenched with the sampling buffer and boiled at 90° C. for 5 min. Samples were subjected to SDS-PAGE, in-gel fluorescence was captured using ChemiDoc MP (Bio-Rad), and Coomassie Blue staining was performed. Similarly, immunoblotting was used to investigate the protein targets of CL26. […] The samples were subjected to SDS-PAG E and imaged for fluorescence signals before western blot analysis. […]

MHCC97L cells = test: Orthotopic metastasis model, MHCC97L cells with AGPAT4 shRNA; type: in vivo, BALB/c nude mice; conditions: MHCC97L cells injected intrahepatically, n=7 per group
Protocol: Metastasis was assessed by orthotopic injection into the liver to observe extrahepatic metastasis to the lungs. […] Six to eight weeks after implantation, mice were administered 100 mg/kg D-luciferin (Gold Biotechnology) via peritoneal injection 5 min before bioluminescence imaging (IV IS 100 Imaging System, Xenogen). The livers and lungs were harvested for ex vivo imaging and histological analyses. The metastatic nodules in the lungs were counted.

HCC [2] = conditions: cited from earlier work
HCC [3] = conditions: cited from earlier work; remark: listed apart in the source
NRAS+AKT-driven HCC = test: NRAS+AKT HTVI HCC mouse model, AAV8-shAgpat4 and sorafenib; type: in vivo, C57BL/6 mice; conditions: sorafenib alone, control (NTC) group
Protocol: Six- to eight-week-old male wildtype C57BL/6 mice (Jackson Laboratory) were used in this study. HTVI procedure was carried out as previously described (41, 42). Briefly, 20 μg of plasmids encoding human AKT1 (myristylated AKT1 or myr-AKT1) and human neuroblastoma Ras viral oncogene homolog (N-RasV12) along with sleeping beauty (SB) transposase at a ratio of 25:1 was diluted in 2 ml of saline (0.9% NaCl), filtered through a 0.22 μm filter and injected into the lateral tail vein of C57BL/6 mice in 5-7 s.
Four weeks after hydrodynamic tail vein injection of proto-oncogenes and SB transposase, the mice were separated into two groups and administered 1×10^11 transducing units of AAV8 virus encoding either shNTC or shAgpat4 in 100 μL PBS via tail vein injection. At 5.5 weeks, mice were administered another dose of the shNTC or shAgpat4 AAV8 virus. Mouse shNTC and mouse shAgpat4 target sequences were cloned into the LV3 vector: 5′-[…] TTTG-3′ (SEQ ID NO:1) and 5′-[…] […]-3′ (SEQ ID NO:2), respectively.
Sorafenib (30 mg/kg/day, delivered orally daily) administration began at 2-3 weeks post HTVI injection, at which point tumors started to develop. Sorafenib treatment lasted for 2.5 weeks, when tumors became non-responsive to the treatment (21). […] Tumor-bearing mice were euthanized at the humane endpoint.

HCC [4] = conditions: Asian study; cited from earlier work

Compound: CO[C@H]1C[C@@H]2CC[C@@H](C)[C@@](O)(O2)C(=O)C(=O)N2CCCC[C@H]2C(=O)O[C@H]([C@H](C)C[C@@H]2CC[C@@H](OCCO)[C@H](OC)C2)CC(=O)[C@H](C)/C=C(\C)[C@@H](O)[C@@H](OC)C(=O)[C@H](C)C[C@H](C)/C=C/C=C/C=C/1C [everolimus]
- median progression free survival (advanced HCC; 28 patients): 3.8 months
- overall survival (advanced HCC): 8.4 months

Compound: 18:1 phosphatidic acid [PA]
- self-renewal, migration and invasion capacities (HCC cells (Huh7)): markedly enhanced the self-renewal, migration, and invasion capacities of HCC cells

Compound: C#CCCCN(Cc1ccc(-c2nc3ccccc3s2)o1)C(=O)CCl [CL26-alkyne]
- CL26-alkyne binding to AGPAT4 cysteine mutant (fluorescence signal) (AGPAT4): complete abolishment of the fluorescence signal
- specificity for AGPAT4 over other AGPAT LPAAT family members [1]: AGAPT4 was the only protein bound

Compound: sh83: second independent shRNA clone targeting human AGPAT4, printed sh83 in b403 (guide CCGGGUGAUCAUAGAAAGGGUAUUUCUCGAGAAAUACCCUUUCUAUGAUCACUUUUUG)
- tumors developing extrahepatic metastases in the lung (MHCC97L cells): 0
- tumors formed in the liver (MHCC97L cells): 7 of 7

Compound: CNC(=O)c1cc(Oc2ccc(NC(=O)Nc3ccc(Cl)c(C(F)(F)F)c3)cc2)ccn1 [sorafenib]
- median overall survival (HCC [2]; SHARP trial): 10.7 months
- tolerability (HCC [2]; phase III trials): generally well tolerated
- time to radiological progression under treatment (HCC [3]; HCC): 4-5 months
- expansion of patient median survival (HCC [3]; first-line treatment of HCC): approximately 3 months
- Agpat4 and p-mTOR expression in tumors (NRAS+AKT-driven HCC): increase in Agpat4 and p-mTOR expression
- median overall survival (HCC [4]): 6.5 months

Compound: sh82: shRNA clone targeting human AGPAT4, clone ID NM_020133.3 (guide CCGGAUGAUUGGUGUGACGGAAAUUCUCGAGAAUUUCCGUCACACCAAUCAUUUUUUG)
- tumors developing extrahepatic metastases in the lung (MHCC97L cells): 0
- tumors formed in the liver (MHCC97L cells): 5 of 7

Source: patent publication US20250360111A1, “COMPOSITIONS OF AGPAT4 INHIBITORS AND METHODS OF USING THEREOF TO TREAT CANCER” (The University of Hong Kong, priority 2024, published 2025)
